Laboratory results reported in ChEMBL document CHEMBL1671617, “Correlation of antimicrobial resistance with beta-lactamases, the OmpA-like porin, and efflux pumps in clinical isolates of Acinetobacter baumannii endemic to New York City” (2008).
In brackets after ≈: the same amount, converted by molar mass.

Legend:
Assay type in all cases: functional
Acinetobacter baumannii [1] = test: Antimicrobial activity against Acinetobacter baumannii alpha clonal group isolate 3 expressing ampC, ompA, adeB, adeM, aacC1, aadA1 by Etest method
Acinetobacter baumannii [2] = test: Antimicrobial activity against ISAba1 linked with the blaOXA-51-type beta-lactamase harboring Acinetobacter baumannii beta clonal group isolate 16 expressing ompA, adeB, adeM, aacA4, blaSHV-5 by Etest method
Acinetobacter baumannii [3] = test: Antimicrobial activity against Acinetobacter baumannii alpha clonal group isolate 4 expressing ampC, ompA, adeB, adeM, aacC1, aadA1 by Etest method
Acinetobacter baumannii [4] = test: Antimicrobial activity against ISAba1 linked with the blaOXA-51-type beta-lactamase harboring Acinetobacter baumannii alpha clonal group isolate 8 expressing ampC, ompA, adeB, adeM, aacC1, aadA1 by Etest method
Acinetobacter baumannii [5] = test: Antimicrobial activity against ISAba1 linked with the blaOXA-51-type beta-lactamase harboring Acinetobacter baumannii zeta clonal group isolate 22 expressing ampC, ompA, adeB, adeM, aadA1, aacA4, aacC2, blaSHV-5 by Etest method
Acinetobacter baumannii [6] = test: Antimicrobial activity against Acinetobacter baumannii nu clonal group isolate 34 expressing ampC, ompA, adeB, adeM by Etest method
Acinetobacter baumannii [7] = test: Antimicrobial activity against Acinetobacter baumannii alpha clonal group isolate 5 expressing ampC, ompA, adeB, adeM, aacC1, aadA1 by Etest method
Acinetobacter baumannii [8] = test: Antimicrobial activity against ISAba1 linked with the blaOXA-51-type beta-lactamase harboring Acinetobacter baumannii alpha clonal group isolate 1 expressing ampC, ompA, adeB, adeM by Etest method
Acinetobacter baumannii [9] = test: Antimicrobial activity against ISAba1 linked with the blaOXA-51-type beta-lactamase harboring Acinetobacter baumannii zeta clonal group isolate 21 expressing ampC, ompA, adeB, adeM, aacC2, blaSHV-5 by Etest method
Acinetobacter baumannii [10] = test: Antimicrobial activity against ISAba1 linked with the blaOXA-51-type beta-lactamase harboring Acinetobacter baumannii beta clonal group isolate 14 expressing ompA, adeB, adeM, aacA4, blaSHV-5 by Etest method
Acinetobacter baumannii [11] = test: Antimicrobial activity against ISAba1 linked with the blaOXA-51-type beta-lactamase harboring Acinetobacter baumannii zeta clonal group isolate 20 expressing ampC, ompA, adeB, adeM, aacC2 by Etest method
Acinetobacter baumannii [12] = test: Antimicrobial activity against Acinetobacter baumannii nu clonal group isolate 33 expressing ampC, ompA, adeB, adeM by Etest method
Acinetobacter baumannii [13] = test: Antimicrobial activity against Acinetobacter baumannii unique clonal group isolate 38 expressing ampC, ompA, adeB, adeM by Etest method
Acinetobacter baumannii [14] = test: Antimicrobial activity against ISAba1 linked with the blaOXA-51-type beta-lactamase harboring Acinetobacter baumannii lambda clonal group isolate 30 expressing ampC, ompA, adeB, adeM, aadB, aadA1 by Etest method
Acinetobacter baumannii [15] = test: Antimicrobial activity against Acinetobacter baumannii unique clonal group isolate 37 expressing ampC, ompA, adeB, adeM by Etest method
Acinetobacter baumannii [16] = test: Antimicrobial activity against ISAba1 linked with the blaOXA-51-type beta-lactamase harboring Acinetobacter baumannii zeta clonal group isolate 23 expressing ampC, ompA, adeB, adeM, aadA1, aacA4, aacC2, aphA6 by Etest method
Acinetobacter baumannii [17] = test: Antimicrobial activity against Acinetobacter baumannii nu clonal group isolate 31 expressing ampC, ompA, adeB, adeM, aadB, aadA2 by Etest method
Acinetobacter baumannii [18] = test: Antimicrobial activity against ISAba1 linked with the blaOXA-51-type beta-lactamase harboring Acinetobacter baumannii beta clonal group isolate 15 expressing ompA, adeB, adeM, aacA4, blaSHV-5 by Etest method
Acinetobacter baumannii [19] = test: Antimicrobial activity against Acinetobacter baumannii nu clonal group isolate 32 expressing ampC, ompA, adeB, adeM, aadB, aadA2 by Etest method
Acinetobacter baumannii [20] = test: Antimicrobial activity against ISAba1 linked with the blaOXA-51-type beta-lactamase harboring Acinetobacter baumannii unique clonal group isolate 40 expressing ampC, ompA, adeB, adeM, aadA1, aacA4, aacC2, blaSHV-5 by Etest method
Acinetobacter baumannii [21] = test: Antimicrobial activity against ISAba1 linked with the blaOXA-51-type beta-lactamase harboring Acinetobacter baumannii zeta clonal group isolate 25 expressing ampC, ompA, adeB, adeM, aadA1, aacA4, aacC2, blaSHV-5 by Etest method
Acinetobacter baumannii [22] = test: Antimicrobial activity against ISAba1 linked with the blaOXA-51-type beta-lactamase harboring Acinetobacter baumannii alpha clonal group isolate 6 expressing ampC, ompA, adeB, adeM, aacC1, aadA1 by Etest method
Acinetobacter baumannii [23] = test: Antimicrobial activity against ISAba1 linked with the blaOXA-51-type beta-lactamase harboring Acinetobacter baumannii zeta clonal group isolate 26 expressing ampC, ompA, adeB, adeM, aadA1, aacA4, aacC2, blaSHV-5 by Etest method
Acinetobacter baumannii [24] = test: Antimicrobial activity against ISAba1 linked with the blaOXA-51-type beta-lactamase harboring Acinetobacter baumannii beta clonal group isolate 9 expressing ampC, ompA, adeB, adeM by Etest method
Acinetobacter baumannii [25] = test: Antimicrobial activity against Acinetobacter baumannii alpha clonal group isolate 2 expressing ampC, ompA, adeB, adeM, aacC1, aadA1 by Etest method
Acinetobacter baumannii [26] = test: Antimicrobial activity against ISAba1 linked with the blaOXA-51-type beta-lactamase harboring Acinetobacter baumannii alpha clonal group isolate 7 expressing ampC, ompA, adeB, adeM, blaSHV-5 by Etest method
Acinetobacter baumannii [27] = test: Antimicrobial activity against Acinetobacter baumannii eta clonal group isolate 36 expressing ampC, ompA, adeB, adeM by Etest method
Acinetobacter baumannii [28] = test: Antimicrobial activity against ISAba1 linked with the blaOXA-51-type beta-lactamase harboring Acinetobacter baumannii zeta clonal group isolate 24 expressing ampC, ompA, adeB, adeM, aadA1, aacA4, aacC2, blaSHV-5 by Etest method
Acinetobacter baumannii [29] = test: Antimicrobial activity against ISAba1 linked with the blaOXA-51-type beta-lactamase harboring Acinetobacter baumannii beta clonal group isolate 13 expressing ompA, adeB, adeM, aacA4, blaSHV-5 by Etest method
Acinetobacter baumannii [30] = test: Antimicrobial activity against ISAba1 linked with the blaOXA-51-type beta-lactamase harboring Acinetobacter baumannii beta clonal group isolate 12 expressing ompA, adeB, adeM, aacA4, aacC2, blaSHV-5 by Etest method
Acinetobacter baumannii [31] = test: Antimicrobial activity against Acinetobacter baumannii eta clonal group isolate 35 expressing ampC, ompA, adeB, adeM by Etest method
Acinetobacter baumannii [32] = test: Antimicrobial activity against ISAba1 linked with the blaOXA-51-type beta-lactamase harboring Acinetobacter baumannii beta clonal group isolate 10 expressing ompA, adeB, adeM, aacA4, blaSHV-5 by Etest method
Acinetobacter baumannii [33] = test: Antimicrobial activity against Acinetobacter baumannii unique clonal group isolate 39 expressing ampC, ompA, adeM by Etest method
Acinetobacter baumannii [34] = test: Antimicrobial activity against ISAba1 linked with the blaOXA-51-type beta-lactamase harboring Acinetobacter baumannii zeta clonal group isolate 19 expressing ampC, ompA, adeB, adeM, aacC2 by Etest method
Acinetobacter baumannii [35] = test: Antimicrobial activity against ISAba1 linked with the blaOXA-51-type beta-lactamase harboring Acinetobacter baumannii beta clonal group isolate 18 expressing ompA, adeB, adeM, aacA4, blaSHV-5 by Etest method
Acinetobacter baumannii [36] = test: Antimicrobial activity against ISAba1 linked with the blaOXA-51-type beta-lactamase harboring Acinetobacter baumannii beta clonal group isolate 11 expressing ompA, adeB, adeM, blaSHV-5 by Etest method
Acinetobacter baumannii [37] = test: Antimicrobial activity against Acinetobacter baumannii lambda clonal group isolate 27 expressing ampC, ompA, adeB, adeM, aadB, aadA1 by Etest method
Acinetobacter baumannii [38] = test: Antimicrobial activity against ISAba1 linked with the blaOXA-51-type beta-lactamase harboring Acinetobacter baumannii beta clonal group isolate 17 expressing ompA, adeB, adeM, aacA4, blaSHV-5 by Etest method
Acinetobacter baumannii [39] = test: Antimicrobial activity against ISAba1 linked with the blaOXA-51-type beta-lactamase harboring Acinetobacter baumannii lambda clonal group isolate 28 expressing ampC, ompA, adeM, aadB, aadA1 by Etest method
Acinetobacter baumannii [40] = test: Antimicrobial activity against ISAba1 linked with the blaOXA-51-type beta-lactamase harboring Acinetobacter baumannii lambda clonal group isolate 29 expressing ampC, ompA, adeM, aadB, aadA1 by Etest method

Compound: C[C@H]1COc2c(N3CCN(C)CC3)c(F)cc3c(=O)c(C(=O)O)cn1c23.C[C@H]1COc2c(N3CCN(C)CC3)c(F)cc3c(=O)c(C(=O)O)cn1c23.O [LEVOFLOXACIN]
- MIC (Acinetobacter baumannii [1]): > 12 µg/mL
- MIC (Acinetobacter baumannii [2]): > 32 µg/mL
- MIC (Acinetobacter baumannii [3]): > 12 µg/mL
- MIC (Acinetobacter baumannii [4]): 32 µg/mL
- MIC (Acinetobacter baumannii [5]): 16 µg/mL
- MIC (Acinetobacter baumannii [6]): 4 µg/mL
- MIC (Acinetobacter baumannii [7]): > 12 µg/mL
- MIC (Acinetobacter baumannii [8]): 16 µg/mL
- MIC (Acinetobacter baumannii [9]): > 32 µg/mL
- MIC (Acinetobacter baumannii [10]): > 32 µg/mL
- MIC (Acinetobacter baumannii [11]): 12 µg/mL
- MIC (Acinetobacter baumannii [12]): 4 µg/mL
- MIC (Acinetobacter baumannii [13]): 0.13 µg/mL
- MIC (Acinetobacter baumannii [14]): 16 µg/mL
- MIC (Acinetobacter baumannii [15]): 6 µg/mL
- MIC (Acinetobacter baumannii [16]): 12 µg/mL
- MIC (Acinetobacter baumannii [17]): > 12 µg/mL
- MIC (Acinetobacter baumannii [18]): > 32 µg/mL
- MIC (Acinetobacter baumannii [19]): > 12 µg/mL
- MIC (Acinetobacter baumannii [20]): > 32 µg/mL
- MIC (Acinetobacter baumannii [21]): 16 µg/mL
- MIC (Acinetobacter baumannii [22]): 6 µg/mL
- MIC (Acinetobacter baumannii [23]): 16 µg/mL
- MIC (Acinetobacter baumannii [24]): > 32 µg/mL
- MIC (Acinetobacter baumannii [25]): > 12 µg/mL
- MIC (Acinetobacter baumannii [26]): 6 µg/mL
- MIC (Acinetobacter baumannii [27]): > 6 µg/mL
- MIC (Acinetobacter baumannii [28]): 16 µg/mL
- MIC (Acinetobacter baumannii [29]): > 32 µg/mL
- MIC (Acinetobacter baumannii [30]): > 32 µg/mL
- MIC (Acinetobacter baumannii [31]): > 6 µg/mL
- MIC (Acinetobacter baumannii [32]): > 32 µg/mL
- MIC (Acinetobacter baumannii [33]): 0.09 µg/mL
- MIC (Acinetobacter baumannii [34]): 12 µg/mL
- MIC (Acinetobacter baumannii [35]): > 32 µg/mL
- MIC (Acinetobacter baumannii [36]): > 32 µg/mL
- MIC (Acinetobacter baumannii [37]): 3 µg/mL
- MIC (Acinetobacter baumannii [38]): > 32 µg/mL

Compound: C[C@@H](O)[C@H]1C(=O)N2C(C(=O)O)=C(S[C@@H]3CN[C@H](C(=O)N(C)C)C3)[C@H](C)[C@H]12 [MEROPENEM]
- MIC (Acinetobacter baumannii [1]): 1.5 µg/mL (≈ 3.91 µM)
- MIC (Acinetobacter baumannii [2]): > 32 µg/mL
- MIC (Acinetobacter baumannii [3]): 1.5 µg/mL (≈ 3.91 µM)
- MIC (Acinetobacter baumannii [4]): 24 µg/mL (≈ 62.6 µM)
- MIC (Acinetobacter baumannii [5]): > 32 µg/mL
- MIC (Acinetobacter baumannii [6]): 0.38 µg/mL (≈ 0.991 µM)
- MIC (Acinetobacter baumannii [7]): 1.5 µg/mL (≈ 3.91 µM)
- MIC (Acinetobacter baumannii [8]): 4 µg/mL (≈ 10.4 µM)
- MIC (Acinetobacter baumannii [9]): 16 µg/mL (≈ 41.7 µM)
- MIC (Acinetobacter baumannii [10]): > 32 µg/mL
- MIC (Acinetobacter baumannii [11]): > 1.5 µg/mL
- MIC (Acinetobacter baumannii [12]): 0.38 µg/mL (≈ 0.991 µM)
- MIC (Acinetobacter baumannii [13]): 0.38 µg/mL (≈ 0.991 µM)
- MIC (Acinetobacter baumannii [14]): > 32 µg/mL
- MIC (Acinetobacter baumannii [15]): 1.5 µg/mL (≈ 3.91 µM)
- MIC (Acinetobacter baumannii [16]): > 32 µg/mL
- MIC (Acinetobacter baumannii [17]): 0.38 µg/mL (≈ 0.991 µM)
- MIC (Acinetobacter baumannii [18]): > 32 µg/mL
- MIC (Acinetobacter baumannii [39]): > 32 µg/mL
- MIC (Acinetobacter baumannii [19]): 0.38 µg/mL (≈ 0.991 µM)
- MIC (Acinetobacter baumannii [20]): > 32 µg/mL
- MIC (Acinetobacter baumannii [21]): > 2 µg/mL
- MIC (Acinetobacter baumannii [22]): 12 µg/mL (≈ 31.3 µM)
- MIC (Acinetobacter baumannii [23]): > 2 µg/mL
- MIC (Acinetobacter baumannii [24]): > 32 µg/mL
- MIC (Acinetobacter baumannii [25]): 1.5 µg/mL (≈ 3.91 µM)
- MIC (Acinetobacter baumannii [26]): > 32 µg/mL
- MIC (Acinetobacter baumannii [27]): 0.75 µg/mL (≈ 1.96 µM)
- MIC (Acinetobacter baumannii [28]): > 2 µg/mL
- MIC (Acinetobacter baumannii [29]): > 32 µg/mL
- MIC (Acinetobacter baumannii [30]): > 32 µg/mL
- MIC (Acinetobacter baumannii [31]): 0.75 µg/mL (≈ 1.96 µM)
- MIC (Acinetobacter baumannii [40]): > 32 µg/mL
- MIC (Acinetobacter baumannii [32]): > 32 µg/mL
- MIC (Acinetobacter baumannii [33]): 0.25 µg/mL (≈ 0.652 µM)
- MIC (Acinetobacter baumannii [34]): > 1.5 µg/mL
- MIC (Acinetobacter baumannii [35]): > 32 µg/mL
- MIC (Acinetobacter baumannii [36]): > 32 µg/mL
- MIC (Acinetobacter baumannii [37]): 32 µg/mL (≈ 83.4 µM)
- MIC (Acinetobacter baumannii [38]): > 32 µg/mL
